Test: Radiochemical purity by iTLC over time after radiolabelling
Type: physicochemical
Procedure: Table 1 to Table 5 show the results of various radiolabelling experiments on radiochemical purity and the chelation yield. The radiolabelling experiments in the tables are carried out as described in: • Example 1 for when the gallium-68 source is GE Liquid target generator and EZAG GalliaPharm generator; • Example 2 for when the gallium-68 source is IRE Galli Eo generator; • Example 3 for when the gallium-68 source is GE solid target generator;
However, the experiments were carried out with the amount of ascorbic acid as indicated in the Tables 1 to 5, and the activity as indicated in the Tables 1 to 5. Radiochemical purities were measured at various times (T0, T1, T4, T6) after the radiolabelled experiments have been conducted.
The kits of Example 1, Example 2 or Example 3, with amounts of ascorbic acid as set out in Table 7 were used in the experiments for the ascorbic acid bracketing matrix. Three strengths of [^68Ga]Ga-PSMA-11 will be tested, i.e. 50 mCi/ml, 7 mCi/ml and 1 mCi/ml. Radiochemical purity was determined at different time points (TO, T1, T4 or T6), as set out in Table 7.

[1] = validation batches, 25 mg ascorbic acid, 51.6-62.7 mCi, 4.56-5.88 mCi/mL, IRE Galli Eo, average of 3, T0
[2] = validation batches, 25 mg ascorbic acid, 51.6-62.7 mCi, 4.56-5.88 mCi/mL, IRE Galli Eo, average of 3, T4 (4 h)
[3] = validation batches, 25 mg ascorbic acid, 51.6-62.7 mCi, 4.56-5.88 mCi/mL, IRE Galli Eo, n=3, T0
[4] = validation batches, 25 mg ascorbic acid, 51.6-62.7 mCi, 4.56-5.88 mCi/mL, IRE Galli Eo, n=3, T4 (4 h)
[5] = validation batches, 25 mg ascorbic acid, 53.3-74.4 mCi, 5.03-6.92 mCi/mL, GE Liquid target, average of 3, T0
[6] = validation batches, 25 mg ascorbic acid, 53.3-74.4 mCi, 5.03-6.92 mCi/mL, GE Liquid target, average of 3, T4 (4 h)
[7] = validation batches, 25 mg ascorbic acid, 53.3-74.4 mCi, 5.03-6.92 mCi/mL, GE Liquid target, n=3, T0
[8] = validation batches, 25 mg ascorbic acid, 53.3-74.4 mCi, 5.03-6.92 mCi/mL, GE Liquid target, n=3, T4 (4 h)
[9] = validation batches, 25 mg ascorbic acid, 65.0-66.4 mCi, 5.74-6.15 mCi/mL, EZAG GalliaPharm, average of 3, T0
[10] = validation batches, 25 mg ascorbic acid, 65.0-66.4 mCi, 5.74-6.15 mCi/mL, EZAG GalliaPharm, average of 3, T4 (4 h)
[11] = validation batches, 25 mg ascorbic acid, 65.0-66.4 mCi, 5.74-6.15 mCi/mL, EZAG GalliaPharm, n=3, T0
[12] = validation batches, 25 mg ascorbic acid, 65.0-66.4 mCi, 5.74-6.15 mCi/mL, EZAG GalliaPharm, n=3, T4 (4 h)
[13] = validation batches, 25 mg ascorbic acid, 537-551 mCi, 50.2-51.6 mCi/mL, GE Solid Target, average of 3, T0
[14] = validation batches, 25 mg ascorbic acid, 537-551 mCi, 50.2-51.6 mCi/mL, GE Solid Target, average of 3, T6 (6 h)
[15] = validation batches, 25 mg ascorbic acid, 537-551 mCi, 50.2-51.6 mCi/mL, GE Solid Target, n=3, T0
[16] = validation batches, 25 mg ascorbic acid, 537-551 mCi, 50.2-51.6 mCi/mL, GE Solid Target, n=3, T6 (6 h)
[17] = validation batches, 25 mg ascorbic acid, 555-564 mCi, 51.1-52.7 mCi/mL, ARTMS Solid Target, average of 3, T0
[18] = validation batches, 25 mg ascorbic acid, 555-564 mCi, 51.1-52.7 mCi/mL, ARTMS Solid Target, average of 3, T6 (6 h)
[19] = validation batches, 25 mg ascorbic acid, 555-564 mCi, 51.1-52.7 mCi/mL, ARTMS Solid Target, n=3, T0
[20] = validation batches, 25 mg ascorbic acid, 555-564 mCi, 51.1-52.7 mCi/mL, ARTMS Solid Target, n=3, T6 (6 h)

O=C([O-])CN(CCN(CC(=O)[O-])Cc1cc(CCC(=O)NCCCCCC(=O)NCCCC[C@H](NC(=O)N[C@@H](CCC(=O)O)C(=O)O)C(=O)O)ccc1[O-])Cc1cc(CCC(=O)O)ccc1[O-].[68Ga+3].[OH3+] [[^68Ga]PSMA-11, gallium-68 radiolabelled Glu-urea-Lys-HBED-CC (gozetotide or PSMA-11)]
Radiochemical Purity (iTLC) Ga-68 PSMA-11 (%) (bracketing ~50 mCi/mL, 31.25 mg ascorbic acid, 500-544 mCi, 48.1-51.7 mCi/mL, GE Solid Target, average of 2, T6 (6 h)): 99%
Radiochemical Purity (iTLC) Free and Colloidal Ga-68 (%) [1]: 0%
Radiochemical Purity (iTLC) Ga-68 PSMA-11 (%) [1]: 100%
Radiochemical Purity (iTLC) Free and Colloidal Ga-68 (%) [2]: 1%
Radiochemical Purity (iTLC) Ga-68 PSMA-11 (%) [2]: 99%
Radiochemical Purity (iTLC) Free and Colloidal Ga-68 (%) [3]: C (C = all results conform to specifications)
Radiochemical Purity (iTLC) Ga-68 PSMA-11 (%) [3]: C (C = all results conform to specifications)
Radiochemical Purity (iTLC) Free and Colloidal Ga-68 (%) [4]: C (C = all results conform to specifications)
Radiochemical Purity (iTLC) Ga-68 PSMA-11 (%) [4]: C (C = all results conform to specifications)
Radiochemical Purity (iTLC) Free and Colloidal Ga-68 (%) [5]: 1%
Radiochemical Purity (iTLC) Ga-68 PSMA-11 (%) [5]: 99%
Radiochemical Purity (iTLC) Free and Colloidal Ga-68 (%) [6]: 0%
Radiochemical Purity (iTLC) Ga-68 PSMA-11 (%) [6]: 100%
Radiochemical Purity (iTLC) Free and Colloidal Ga-68 (%) [7]: C (C = all results conform to specifications)
Radiochemical Purity (iTLC) Ga-68 PSMA-11 (%) [7]: C (C = all results conform to specifications)
Radiochemical Purity (iTLC) Free and Colloidal Ga-68 (%) [8]: C (C = all results conform to specifications)
Radiochemical Purity (iTLC) Ga-68 PSMA-11 (%) [8]: C (C = all results conform to specifications)
Radiochemical Purity (iTLC) Free and Colloidal Ga-68 (%) [9]: 0%
Radiochemical Purity (iTLC) Ga-68 PSMA-11 (%) [9]: 100%
Radiochemical Purity (iTLC) Free and Colloidal Ga-68 (%) [10]: 2%
Radiochemical Purity (iTLC) Ga-68 PSMA-11 (%) [10]: 98%
Radiochemical Purity (iTLC) Free and Colloidal Ga-68 (%) [11]: C (C = all results conform to specifications)
Radiochemical Purity (iTLC) Ga-68 PSMA-11 (%) [11]: C (C = all results conform to specifications)
Radiochemical Purity (iTLC) Free and Colloidal Ga-68 (%) [12]: C (C = all results conform to specifications)
Radiochemical Purity (iTLC) Ga-68 PSMA-11 (%) [12]: C (C = all results conform to specifications)
Radiochemical Purity (iTLC) Free and Colloidal Ga-68 [13]: 0%
Radiochemical Purity (iTLC) Ga-68 PSMA-11 [13]: 100%
Radiochemical Purity (iTLC) Free and Colloidal Ga-68 [14]: 1%
Radiochemical Purity (iTLC) Ga-68 PSMA-11 [14]: 99%
Radiochemical Purity (iTLC) Free and Colloidal Ga-68 [15]: C (C = all results conform to specifications)
Radiochemical Purity (iTLC) Ga-68 PSMA-11 [15]: C (C = all results conform to specifications)
Radiochemical Purity (iTLC) Free and Colloidal Ga-68 [16]: C (C = all results conform to specifications)
Radiochemical Purity (iTLC) Ga-68 PSMA-11 [16]: C (C = all results conform to specifications)
Radiochemical Purity (iTLC) Free and Colloidal Ga-68 [17]: 1%
Radiochemical Purity (iTLC) Ga-68 PSMA-11 [17]: 99%
Radiochemical Purity (iTLC) Free and Colloidal Ga-68 [18]: 0%
Radiochemical Purity (iTLC) Ga-68 PSMA-11 [18]: 100%
Radiochemical Purity (iTLC) Free and Colloidal Ga-68 [19]: C (C = all results conform to specifications)
Radiochemical Purity (iTLC) Ga-68 PSMA-11 [19]: C (C = all results conform to specifications)
Radiochemical Purity (iTLC) Free and Colloidal Ga-68 [20]: C (C = all results conform to specifications)
Radiochemical Purity (iTLC) Ga-68 PSMA-11 [20]: C (C = all results conform to specifications)
